We go through twelve compounds from article PMC3191323 (Journal of medicinal chemistry, 2011).

The test system of one data set is P. falciparum strain W2. Put plainly: Malaria SYBR Green I-based fluorescence assay. The format is cell-based. As to conditions: Plasmodium falciparum, W2, 96 h, read-out: Antimalarial activity against P. falciparum IC50, W2.
A further data set relates to P. falciparum strain 3D7. Put plainly: Malaria SYBR Green I-based fluorescence assay. Format: cell-based, Plasmodium falciparum.
In the next data set the test system is P. falciparum (3D7). Put plainly: Viable cell count. The format is cell-based, Plasmodium falciparum. The settings on record: 2xIC50, 72 h.
The test system of the next data set is P. falciparum. Put plainly: Flow cytometric analysis of parasite DNA replication and nuclear division. Format: cell-based, Plasmodium falciparum. The settings on record: 2xIC50, flow cytometry. For orientation: A flow cytometer gives signals particle by particle.
Data set [1] has as its system HepG2 human hepatocellular liver carcinoma cells. Put plainly: Cytotoxicity in mammalian cells, lactate dehydrogenase assay. The format is cell-based. The settings on record: HepG2 vs P. falciparum.

With `CCN(CC)CCCC(C)Nc1ccnc2cc(Cl)ccc12` (centres unmarked) [CQ, chloroquine, reference compound], the half-inhibitory concentration (IC50) (commonly the concentration needed to halve the response being measured) in the data set on P. falciparum strain W2 came to 70 ± 1 nM; in the data set on P. falciparum strain 3D7 (Plasmodium falciparum, 3D7, 96 h, read-out: Antimalarial activity against P. falciparum IC50, 3D7), 9 ± 0.04 nM.
On to `Cl.Cl.O=C(NCCCNCCCCCCCNCCCNC(=O)NCCC(c1ccccc1)c1ccccc1)NCCC(c1ccccc1)c1ccccc1` [Compound 9], for which, in the data set on P. falciparum (3D7), the “Cytotoxic response: decrease in viable cell numbers (% parasitemia)” value (from here on “Cytotoxic response: decrease … (% parasitemia)”) is reported as “significant cytotoxic response”.
Regarding `Cl.Cl.S=C(NCCCNCCCCCCCNCCCNC(=S)NCCC(c1ccccc1)c1ccccc1)NCCC(c1ccccc1)c1ccccc1` [Compound 13], the “Cytotoxic response: decrease … (% parasitemia)” value in the data set on P. falciparum (3D7) is “significant cytotoxic response”.
Take `Cl.Cl.S=C(NCCCNCCCCNCCCNC(=S)NCC(c1ccccc1)c1ccccc1)NCC(c1ccccc1)c1ccccc1` [Compound 15]: the “Cytotoxic response: decrease … (% parasitemia)” value with P. falciparum (3D7) is reported as “significant cytotoxic response”.
Consider `Cl.Cl.S=C(NCCCNCCCCCCCNCCCNC(=S)NCC(c1ccccc1)c1ccccc1)NCC(c1ccccc1)c1ccccc1` [Compound 16], for which the “Cytotoxic response: decrease … (% parasitemia)” value in the data set on P. falciparum (3D7) is given as “significant cytotoxic response”. Also, the “Effect on DNA replication and nuclear division” value (shortened to “Effect”) with P. falciparum is “greatest inhibitory affect on DNA replication and nuclear division”.
Turning to `Cl.Cl.S=C(NCCCNCCCCNCCCNC(=S)NCc1ccccc1)NCc1ccccc1` [Compound 20], in the data set with P. falciparum (3D7), the “Cytotoxic response: decrease … (% parasitemia)” value is recorded as “not able to decrease viable cell numbers”. Also, in the data set with P. falciparum, the “Effect” value is reported as “not able to prevent DNA replication”.
Turning to `Cl.Cl.S=C(NCCCNCCCCCCNCCCNC(=S)NC(c1ccccc1)c1ccccc1)NC(c1ccccc1)c1ccccc1` [Compound 25, 1,14-Bis-{3-[1-(1′,1′-diphenylmethyl)thioureado]}-4,11-diazatetradecane Hydrochloride], the “Cytotoxic response: decrease … (% parasitemia)” value with P. falciparum (3D7) was “significant cytotoxic response”.
On to `Cl.Cl.S=C(NCCCNCCCCCCNCCCNC(=S)NCc1ccccc1)NCc1ccccc1` [Compound 29, 1,14-Bis-{3-[1-(benzyl)thioureado]}-4,11-diazatetradecane Hydrochloride], for which the “Cytotoxic response: decrease … (% parasitemia)” value in the data set on P. falciparum (3D7) is “significant cytotoxic response”. Also, the “Selectivity towards the parasite compared to HepG2” value (shortened to “Selectivity towards the parasite”) in data set [1] is given as > 500 fold.
Consider `Cl.Cl.O=C(NCCCNCCCCCCNCCCNC(=O)Nc1ccccc1)Nc1ccccc1` [Compound 30, 1,14-Bis-{3-[1-(phenyl)ureado]}-4,11-diazatetradecane Hydrochloride], for which the “Cytotoxic response: decrease … (% parasitemia)” value with P. falciparum (3D7) is “significant cytotoxic response”.
Turning to `CCNC(=O)NCCCNCCCCCCNCCCNC(=O)NCC.Cl.Cl` [Compound 34, 1,14-Bis-{3-[1-(ethyl)ureado]}-4,11-diazatetradecane Hydrochloride], the “Antimalarial activity against P. falciparum IC50, 3D7 (values in μM)” value with P. falciparum strain 3D7 (drug sensitive strain 3D7, footnote: IC50 values in μM) is given as “not active in the μM range”.
In the case of `Cl.Cl.O=C(NCCCNCCCCCCCNCCCNC(=O)NC(c1ccccc1)c1ccccc1)NC(c1ccccc1)c1ccccc1` [Compound 38, 1,15-Bis-{3-[1-(1′,1′-diphenylmethyl)ureado]}-4,12-diazapentadecane Hydrochloride], the “Cytotoxic response: decrease … (% parasitemia)” value with P. falciparum (3D7) is given as “significant cytotoxic response”. Also, the “Effect” value with P. falciparum is “greatest inhibitory affect on DNA replication and nuclear division”. The “Selectivity towards the parasite” value in data set [1] is > 500 fold.
Turning to `Cl.Cl.O=C(NCCCNCCCCCCCNCCCNC(=O)NCC(c1ccccc1)c1ccccc1)NCC(c1ccccc1)c1ccccc1` [Compound 39, 1,15-Bis-{3-[1-(2′,2′-diphenylethyl)ureado]}-4,12-diazapentadecane Hydrochloride], in the data set on P. falciparum (3D7), the “Cytotoxic response: decrease … (% parasitemia)” value is reported as “significant cytotoxic response”. The “Effect” value with P. falciparum is “greatest inhibitory affect on DNA replication and nuclear division”. Also, the “Selectivity towards the parasite” value in data set [1] is listed as > 500 fold.
